Literature values as cited in patent US20240041983A1, “IMPROVED PHARMACEUTICAL FORMULATIONS OF GLP-1 RECEPTOR AGONISTS” (CYPRUMED GMBH, priority 2020, published 2024).

Details: in humans

- t½: ~1 week
Substance: semaglutide
